Laboratory results as given in patent US20150352078A1, “PHARMACEUTICAL COMPOSITION FOR DISEASES CAUSED BY PATHOGENIC MICROORGANISMS SUCH AS CANDIDA” (POLA PHARMA INC., priority 2013, published 2015).
Values after ≈ are worked out from the molar mass of the structure shown. Where two headings read alike, the source gives them in different places.

What was measured:
[1] = tested on: Trichomonas vaginalis; test: Effect on growth of clinically isolated Trichomonas vaginalis in Trichomonas medium F (Neutral Red colour, microscopic observation); format: cell-based; conditions: for MIC: Trichomonas vaginalis, 72 hours culture, read-out: minimum growth inhibitory concentration (MIC); for Color: Neutral Red marker (yellow = acid production/growth); for Color / Result of microscopic observation: 37° C., 72 hours; for Result of microscopic observation: inverted microscope
Procedure: The effect on Trichomonas vaginalis was investigated for luliconazole of the compound represented by the general formula (1). That is, 5×10^6 cells of clinically isolated Trichomonas vaginalis were seeded in Trichomonas medium F (6.5 mL, contained in tube) produced by Fujiyakuhin Co., Ltd. containing Neutral Red as a marker, and the preculture was carried out for 72 hours (preculture). It was confirmed that Trichomonas grew, the acid was actively produced, and Neutral Red was changed to be yellow. After that, the preculture was added to Trichomonas medium F by every 100 μL in order to carry out the main culture, to which 0.5 mL of a test solution was added. In this situation, the number of protozoas in the solution of preculture was 1.5×10^5 cells/mL. Three series of test solutions were prepared, in which the luliconazole concentrations were 200 μM (final concentration: 35.2 μM), 100 μM (final concentration: 17.6 μM), and 50 μM (final concentration: 8.8 μM), as luliconazole dissolved in 10% methanol saline solution. 0.5 mL of vehicle was added as a control. As for the vehicle, 10% methanol saline solution (final concentration: 0 μM) was used. Stirring was sufficiently performed after the addition, followed by culturing at 37° C. for 72 hours. After the completion of the cultivation, the color was discriminated, and the state of protozoas was observed by using an inverted microscope.
The same or equivalent investigation as that of Example 1 was performed while changing luliconazole to lanoconazole.

[2] = tested on: Candida albicans; test: In vitro antifungal activity on Candida albicans, broth microdilution method; format: cell-based; conditions: 48 hours, 80% growth inhibition, turbidity at 630 nm, read-out: minimum growth inhibitory concentration (MIC80)
Procedure: The minimum growth inhibitory concentration (MIC) was measured by means of the broth microdilution method (medicament ×2 dilution series) based on the use of […] medium (pH 7.0) buffered with 0.165 M morpholinopropanesulfonic acid. 100 μL of test microorganism yeast cells/sterilized physiological saline suspensions (1 to 5×10^3 cells/mL) and 100 μL of media previously added with respective compounds and medium not added with, compounds as a control were dispensed into respective wells of flat-bottom microculture plate.

[3] = tested on: Chlamydia trachomatis (D/UW3/Cx); test: Anti-intracellular parasite action on Chlamydia trachomatis cultured in HeLa 229 host cells, fluorescent staining of inclusion bodies; format: cell-based
Procedure: The anti-intracellular parasite action was investigated by using Chlamydia trachomatis (D/UW3/Cx). That is, Chlamydia trachomatis was cultured in the presence of ×2 dilution series of 8 to 64 μg/ml of luliconazole by using HeLa 229 cells as the host. MEM added with 8% thermally inactivated FBS, to which 1 μg/ml of cyclohexamide was added, was used as the medium, and the culture was performed for 72 hours in 5% carbon dioxide gas at 37° C. After the culture, Chlamydia inclusion bodies were subjected to the fluorescent staining to be apple green with Chlamydia FA reagent “Seiken” (produced by DENKA SEIKEN Co., Ltd.), and the observation was performed by using a fluorescence microscope.

[4] = tested on: Chlamydia; conditions: stated as known; cited from earlier work
[5] = tested on: protozoa; conditions: stated as known; cited from earlier work

| MIC [1] [µM] | MIC80 ([2]; strain IFO0197, 35° C.) [µg/mL] | MIC80 ([2]; strain IFO0579, 35° C.) [µg/mL] | MIC80 ([2]; strain IFO1269, 35° C.) [µg/mL] | MIC80 ([2]; strain TIMM3164, 35° C.) [µg/mL] | Structure (SMILES) | Color ([1]; final concentration 8.8 μM) | Color ([1]; final concentration 17.6 μM) | Result of microscopic observation ([1]; final concentration 17.6 μM) | Color ([1]; final concentration 35.2 μM) | Result of microscopic observation ([1]; final concentration 35.2 μM) | anticlamydial action [4] | antiprotozoal action [5] | also measured |
| --- | --- | --- | --- | --- | --- | --- | --- | --- | --- | --- | --- | --- | --- |
| ~17.6 (≈ 5.63 µg/mL) | 0.125 (≈ 0.391 µM) | 0.0625 (≈ 0.195 µM) | 0.0625 (≈ 0.195 µM) | 0.5 (≈ 1.56 µM) | N#C/C(=C1/SCC(c2ccccc2Cl)S1)n1ccnc1 (centres unmarked) [Lanoconazole, 4-(2-chlorophenyl)-1,3-dithiolane-2-ylidene-1-imidazolyl acetonitrile] | yellow | red | protozoas were observed slightly | red | no protozoa was observed |  |  | growth of Trichomonas ([1]; no concentration stated): inhibits the growth |
| ~8.8 (≈ 3.12 µg/mL) | 0.0625 (≈ 0.176 µM) | 0.0313 (≈ 0.0883 µM) | 0.0625 (≈ 0.176 µM) | 0.5 (≈ 1.41 µM) | N#C/C(=C1/SC[C@@H](c2ccc(Cl)cc2Cl)S1)n1ccnc1 [Luliconazole, (R)-(−)-(E)-[4-(2,4-dichlorophenyl)-1,3-dithiolane-2-ylidene]-1-imidazolyl acetonitrile] | yellow | red | no protozoa was observed | red | no protozoa was observed |  |  | growth of Trichomonas ([1]; at 8.8 μM): inhibits the growth; Result of microscopic observation ([1]; final concentration 8.8 μM): protozoas were observed slightly; MIC ([3]; Chlamydia trachomatis, HeLa 229 host cells, 72 hours culture, read-out: MIC with respect to Chlamydia trachomatis): 32 µg/mL (≈ 90.3 µM); observation result of Chlamydia inclusion bodies ([3]; treatment with 8 μg/mL, FIG. 1 panel (A)): dot-shaped Chlamydia inclusion bodies stained apple green were observed; observation result of Chlamydia inclusion bodies ([3]; treatment with 16 μg/mL, FIG. 1 panel (B)): dot-shaped Chlamydia inclusion bodies stained apple green were observed; observation result of Chlamydia inclusion bodies ([3]; treatment with 32 μg/mL, FIG. 1 panel (C)): No inclusion body was found |
|  |  |  |  |  | CCC(C)(C)c1ccc(CC(C)CN2C[C@@H](C)O[C@@H](C)C2)cc1 (some centres unmarked) [amorolfin] |  |  |  |  |  | do not have | do not have |  |
|  |  |  |  |  | c1ccc(-c2ccc(C(c3ccccc3)n3ccnc3)cc2)cc1 (centres unmarked) [bifonazole] |  |  |  |  |  | do not have | do not have |  |
|  |  |  |  |  | CN(Cc1ccc(C(C)(C)C)cc1)Cc1cccc2ccccc12 [butenafine] |  |  |  |  |  | do not have | do not have |  |
|  |  |  |  |  | Clc1ccc(COC(Cn2ccnc2)c2ccc(Cl)cc2Cl)c(Cl)c1 (centres unmarked) [miconazole] |  |  |  |  |  | do not have | do not have |  |
